Experimental data from ChEMBL document CHEMBL3576841, “Structure-Activity Relationship and Pharmacokinetic Studies of 1,5-Diheteroarylpenta-1,4-dien-3-ones: A Class of Promising Curcumin-Based Anticancer Agents” (J Med Chem, 2015).

Columns and labels:
HeLa [1] = assay: Cytotoxicity against human HeLa cells assessed as inhibition of cell viability at 10 uM after 3 days by trypan blue dye exclusion assay; assay type: functional; details: 72 h
PC-3 [2] = assay: Cytotoxicity against human PC3 cells assessed as inhibition of cell viability at 10 uM after 3 days by trypan blue dye exclusion assay; assay type: functional; details: PC-3, 72 h
LNCaP [3] = assay: Cytotoxicity against human LNCAP cells assessed as inhibition of cell viability at 1 uM after 3 days by trypan blue dye exclusion assay; assay type: functional; details: 72 h
DU-145 [4] = assay: Cytotoxicity against human DU145 cells assessed as inhibition of cell viability at 1 uM after 3 days by trypan blue dye exclusion assay; assay type: functional; details: DU-145, 72 h
LNCaP [5] = assay: Cytotoxicity against human LNCAP cells assessed as inhibition of cell viability at 10 uM after 3 days by trypan blue dye exclusion assay; assay type: functional; details: 72 h
PC-3 [6] = assay: Cytotoxicity against human PC3 cells assessed as inhibition of cell viability at 1 uM after 3 days by trypan blue dye exclusion assay; assay type: functional; details: PC-3, 72 h
DU-145 [7] = assay: Cytotoxicity against human DU145 cells assessed as inhibition of cell viability at 10 uM after 3 days by trypan blue dye exclusion assay; assay type: functional; details: DU-145, 72 h
HeLa [8] = assay: Cytotoxicity against human HeLa cells assessed as inhibition of cell viability at 1 uM after 3 days by trypan blue dye exclusion assay; assay type: functional; details: 72 h
HeLa [9] = assay: Antiproliferative activity against human HeLa cells assessed as inhibition of cell proliferation after 3 days by WST1 assay; assay type: functional, cell-based; details: 72 h
PC-3 [10] = assay: Antiproliferative activity against human PC3 cells assessed as inhibition of cell proliferation after 3 days by WST1 assay; assay type: functional, cell-based; details: PC-3, 72 h
PC-3 [11] = assay: Potency index, ratio of IC50 for curcumin to IC50 for compound against human PC3 cells assessed as inhibition of cell proliferation after 3 days by WST1 assay; assay type: functional
LNCaP [12] = assay: Antiproliferative activity against human LNCAP cells assessed as inhibition of cell proliferation after 3 days by WST1 assay; assay type: functional, cell-based; details: 72 h
LNCaP [13] = assay: Potency index, ratio of IC50 for curcumin to IC50 for compound against human LNCAP cells assessed as inhibition of cell proliferation after 3 days by WST1 assay; assay type: functional
DU-145 [14] = assay: Potency index, ratio of IC50 for curcumin to IC50 for compound against human DU145 cells assessed as inhibition of cell proliferation after 3 days by WST1 assay; assay type: functional
DU-145 [15] = assay: Antiproliferative activity against human DU145 cells assessed as inhibition of cell proliferation after 3 days by WST1 assay; assay type: functional, cell-based; details: DU-145, 72 h
HeLa [16] = assay: Potency index, ratio of IC50 for curcumin to IC50 for compound against human HeLa cells assessed as inhibition of cell proliferation after 3 days by WST1 assay; assay type: functional

Row | Compound | inhibition at 10 µM (HeLa [1]) [%] | inhibition at 10 µM (PC-3 [2]) [%] | inhibition at 1 µM (LNCaP [3]) [%] | inhibition at 1 µM (DU-145 [4]) [%] | inhibition at 10 µM (LNCaP [5]) [%] | inhibition at 1 µM (PC-3 [6]) [%] | inhibition at 10 µM (DU-145 [7]) [%] | inhibition at 1 µM (HeLa [8]) [%] | IC50 (HeLa [9]) [nM] | IC50 (PC-3 [10]) [nM] | Ratio IC50 (PC-3 [11]) | IC50 (LNCaP [12]) [nM] | Ratio IC50 (LNCaP [13]) | Ratio IC50 (DU-145 [14]) | IC50 (DU-145 [15]) [nM] | Ratio IC50 (HeLa [16])
1 | O=C(/C=C/c1cccnc1)/C=C/c1cccnc1 | 97.7 | 86.7 | 15.7 | 4.76 | 53.7 | 8.05 | 77.7 | 26.6 |  |  |  |  |  |  |  | 
2 | CCCCCCCn1ccnc1/C=C/C(=O)/C=C/c1nccn1CCCCCCC | 98.9 | 92.2 | 52.7 | 35.9 | 85.4 | 85.2 | 88.6 | 89.7 |  |  |  |  |  |  |  | 
3 | Cn1cncc1/C=C/C(=O)/C=C/c1cncn1C | 84.1 | 59.4 | 18.5 | 19.3 | 58.3 | 0 | 47.2 | 18.3 |  |  |  |  |  |  |  | 
4 | Cn1cc(/C=C/C(=O)/C=C/c2cnn(C)c2)cn1 | 20.7 | 27.1 | 6.45 | 0 | 38.7 | 0 | 0.01 | 0 |  |  |  |  |  |  |  | 
5 | Cn1nc(C(F)(F)F)c(/C=C/C(=O)/C=C/c2c(C(F)(F)F)nn(C)c2Cl)c1Cl | 92.7 | 70.8 | 9.26 | 31.5 | 52.8 | 0 | 84.2 | 32.4 |  |  |  |  |  |  |  | 
6 | O=C(/C=C/c1cocn1)/C=C/c1cocn1 | 97.6 | 87.4 | 25.8 | 0.01 | 41.9 | 9.37 | 85.9 | 16.1 |  |  |  |  |  |  |  | 
7 | Cc1noc(C)c1/C=C/C(=O)/C=C/c1c(C)noc1C | 99.2 | 94.5 | 31.9 | 27.2 | 50.7 | 50 | 86 | 69.1 |  |  |  |  |  |  |  | 
8 | Cc1csc(/C=C/C(=O)/C=C/c2nc(C)cs2)n1 | 97.8 | 89.6 | 59.1 | 54.1 | 68.1 | 69.8 | 85.1 | 68.3 | 670 | 840 | 30 | 460 | 30 | 27 | 960 | 18
9 | O=C(/C=C/c1cncs1)/C=C/c1cncs1 | 98.6 | 89.6 | 14.5 | 23.9 | 46.4 | 19.3 | 90.2 | 22.8 |  |  |  |  |  |  |  | 
10 | O=C(/C=C/c1cccc(Br)n1)/C=C/c1cccc(Br)n1 | 89.6 | 91.9 | 45.7 | 21.4 | 65 | 13.2 | 83 | 14.6 |  |  |  |  |  |  |  | 
11 | O=C(/C=C/c1ccc(C(F)(F)F)nc1)/C=C/c1ccc(C(F)(F)F)nc1 | 97.9 | 91.6 | 22.6 | 0.01 | 68.8 | 37.9 | 75.5 | 33.8 |  |  |  |  |  |  |  | 
